Experimental data from ChEMBL document CHEMBL1151533, “Dihydropyrimidine calcium channel blockers 51: bicyclic dihydropyrimidines as potent mimics of dihydropyridines” (Bioorg Med Chem Lett, 1991).

Species: Oryctolagus cuniculus
Assay: Compound was evaluated for vasorelaxant activity determined using potassium-depolarized rabbit thoracic aorta
Assay type: functional

SMILES | IC50 [nM]
CC1=Nc2cc(=O)n(C(=O)c3ccccc3)n2C(c2cccc([N+](=O)[O-])c2)/C1=C(/O)OC(C)C (configuration not stated) | 54
CC1=Nc2cc(=O)[nH]n2C(c2cccc([N+](=O)[O-])c2)/C1=C(/O)OC(C)C (configuration not stated) | 318
CCCNC(=O)n1c(=O)cc2n1C(c1cccc([N+](=O)[O-])c1)/C(=C(/O)OC(C)C)C(C)=N2 (configuration not stated) | 23
CCO/C(O)=C1/C(C)=Nc2ccnn2C1c1cccc(Cl)c1Cl (configuration not stated) | 21
CC1=Nc2c(C#N)cnn2C(c2cccc([N+](=O)[O-])c2)/C1=C(/O)OC(C)C (configuration not stated) | 7
COC(=O)c1cnn2c1N=C(C)/C(=C(\O)OC(C)C)C2c1cccc([N+](=O)[O-])c1 (configuration not stated) | 1160
CCO/C(O)=C1/C(C)=Nc2nccn2C1c1cccc(Cl)c1Cl (configuration not stated) | 96
CC1=Nc2cc(=O)n(Cc3ccccc3)n2C(c2cccc([N+](=O)[O-])c2)/C1=C(/O)OC(C)C (configuration not stated) | 5
CCOC(=O)N1C(=S)N=C(C)/C(=C(/O)OCC)C1c1cccc([N+](=O)[O-])c1 (configuration not stated) | 3
CCOC(=O)C1=C(C)N=C2NCCCN2C1c1cccc(Cl)c1Cl (configuration not stated) | 2890
CCO/C(O)=C1/C(C)=Nc2c(C#N)cnn2C1c1cccc(Cl)c1Cl (configuration not stated) | 1.5
CCO/C(O)=C1/C(C)=Nc2nc(SC)nn2C1c1cccc(Cl)c1Cl (configuration not stated) | 620
CC1=Nc2c(C(N)=O)cnn2C(c2cccc([N+](=O)[O-])c2)/C1=C(/O)OC(C)C (configuration not stated) | > 1000
CC1=Nc2cc(=O)n(S(=O)(=O)c3ccccc3)n2C(c2cccc([N+](=O)[O-])c2)/C1=C(/O)OC(C)C (configuration not stated) | 10
COC(=O)C1=C(C)NC(C)=C(C(=O)OC)C1c1ccccc1[N+](=O)[O-] [NIFEDIPINE] | 2.5

Tested on: Rattus norvegicus
Assay: In vivo antihypertensive activity of compound was determined at 45 umol/kg administered orally in spontaneously hypertensive rats; % reduction in blood pressure
Assay type: functional

SMILES | Reduction [%]
CCO/C(O)=C1/C(C)=Nc2c(C#N)cnn2C1c1cccc(Cl)c1Cl (configuration not stated) | 20
COC(=O)C1=C(C)NC(C)=C(C(=O)OC)C1c1ccccc1[N+](=O)[O-] [NIFEDIPINE] | 33
